Columns and labels:
[1] = Inhibition of human N-terminally His6-tagged N-acetylglucosaminyltransferase 3 expressed in HEK293T cells assessed as GN-GnGnbi-PAs molar ratio level incubated for 1 hr using 5 uM GnGnbi-PA acceptor substrate and 0.5 to 4 mM UDP-GlcNAc donor substrate by reverse phase HPLC method
[2] = Inhibition of human N-terminally His6-tagged N-acetylglucosaminyltransferase 3 expressed in HEK293T cells assessed as GN-GnGnbi-PAs molar ratio level incubated for 1 hr using 2.5 to 10 uM GnGnbi-PA acceptor substrate and 20 mM UDP-GlcNAc donor substrate by reverse phase HPLC method

Ki [1] [µM]	Ki [2] [µM]	SMILES
1500	14000	CO[C@H]1O[C@H](CO[C@H]2O[C@H](CO)[C@@H](O)[C@H](O)[C@@H]2O[C@@H]2O[C@H](CO)[C@@H](O)[C@H](O)[C@H]2NC(C)=O)[C@@H](O[C@@H]2O[C@H](CO)[C@@H](O)[C@H](O)[C@H]2NC(C)=O)[C@H](O[C@H]2O[C@H](CO)[C@@H](O)[C@H](O)[C@@H]2O[C@@H]2O[C@H](CO)[C@@H](O)[C@H](O)[C@H]2NC(C)=O)[C@@H]1O
1400	1200	CO[C@H]1O[C@H](CO[C@H]2O[C@H](CO)[C@@H](O)[C@H](O)[C@@H]2O[C@@H]2O[C@H](CO)[C@@H](O)[C@H](O)[C@H]2NC(C)=O)[C@@H](O)[C@H](O[C@H]2O[C@H](CO)[C@@H](O)[C@H](O)[C@@H]2O[C@@H]2O[C@H](CO)[C@@H](O)[C@H](O)[C@H]2NC(C)=O)[C@@H]1O
